Test results reported in article PMC10041561 (JID Innovations, 2022).

Experiments:
[1] = test system: reconstituted human epidermis (RHE) tissues; experiment: Cortisol in RHE-conditioned medium; assay type: cell-based; conditions: 48 hours, with or without cell viability standardization
[2] = test system: CB2 receptor; conditions: ref Vučković et al., 2018; cited from earlier work
[3] = ref Jaidee et al., 2021; cited from earlier work
[4] = ref Nelson et al., 2020; cited from earlier work
[5] = test system: TNF-stimulated neonatal human epidermal KCs; experiment: Microarray gene expression in TNF-stimulated keratinocytes; assay type: cell-based
[6] = test system: CB1 receptor; conditions: ref Vučković et al., 2018; cited from earlier work
[7] = target: T1, PTGS2 (COX-2) (Homo sapiens, UniProt P35354); experiment: PTGS2; assay type: biochemical, bovine/human; conditions: COX-2 Inhibition Mean IC50, mean of replicates 1-2 (Fig 16g)
T1 sequence (P35354 18-604): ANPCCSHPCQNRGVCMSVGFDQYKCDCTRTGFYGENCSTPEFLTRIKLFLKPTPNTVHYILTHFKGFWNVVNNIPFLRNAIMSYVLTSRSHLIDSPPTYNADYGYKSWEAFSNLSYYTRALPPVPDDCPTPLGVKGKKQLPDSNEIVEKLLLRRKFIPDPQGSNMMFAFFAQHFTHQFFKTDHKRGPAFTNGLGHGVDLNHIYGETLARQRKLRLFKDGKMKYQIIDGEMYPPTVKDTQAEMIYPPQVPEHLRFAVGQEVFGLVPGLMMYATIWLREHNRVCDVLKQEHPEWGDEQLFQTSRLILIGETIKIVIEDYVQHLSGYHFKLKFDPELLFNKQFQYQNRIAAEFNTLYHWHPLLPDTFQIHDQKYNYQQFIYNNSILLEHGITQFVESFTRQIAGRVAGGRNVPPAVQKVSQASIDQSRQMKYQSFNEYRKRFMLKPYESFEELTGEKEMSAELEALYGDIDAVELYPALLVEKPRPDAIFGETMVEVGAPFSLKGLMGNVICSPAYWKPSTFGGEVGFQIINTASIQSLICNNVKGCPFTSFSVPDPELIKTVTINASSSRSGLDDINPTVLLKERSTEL

[8] = test system: reconstituted human epidermis (RHE) tissues; experiment: IL-8 levels in RHE-conditioned medium; assay type: cell-based; conditions: 48 hours

C=C(C)[C@@H]1CCC(C)=C[C@H]1c1c(O)cc(CCCCC)cc1O [CBD, cannabidiol]
cortisol levels in RHE-conditioned medium [1]: not observed
affinity for the CB2 receptor [2]: little affinity
stability at room temperature [3]: unstable at room temperature
octanol-water partition coefficient [4]: high
average increase in the expression of unhealthy skin signature genes ([5]; TNF-stimulated KCs): 5%
number of genes decreased ([5]; vs TNF, FDR < 0.10 with FC < 0.80): 114 genes
number of genes increased ([5]; vs TNF, FDR < 0.10 with FC > 1.25): 205 genes
number of genes with altered expression ([5]; vs TNF, FDR < 0.10 with FC > 1.25 or FC < 0.80): 319 genes
affinity for the CB1 receptor [6]: little affinity

C=C[C@@](C)(/C=C/c1ccc(O)cc1)CCC=C(C)C [BAK, bakuchiol]
cortisol levels in RHE-conditioned medium [1]: significantly decreased cortisol levels
IC50 [7]: 12.9 µM
IL-8 levels in RHE-conditioned medium [8]: decreased IL-8
